The text below walks through data of article PMC6408518, “Structure guided design of an antibacterial peptide that targets UDP-N-acetylglucosamine acyltransferase” (Scientific Reports, 2019).

Experiment [1] deals with T1, E. coli LpxA (Escherichia coli, UniProt P0A722). The experiment is described as follows: LpxA acyltransferase inhibition assay ([α-32P]UDP-GlcNAc conversion, TLC). The format is biochemical. More on the design: made in house; host or cells: E. coli BL21(DE3)/pLysE/pTO1. The following applies: 1 µM UDP-GlcNAc, 1 µM R-3-hydroxymyristoyl-ACP, 1 nM LpxA, 30 °C, 10% DMSO; SD of triplicates. How it is done:
The peptides were assayed for acyl transferase inhibitory activity under conditions where the concentrations of UDP-GlcNAc and R-3-hydroxymyristoyl-ACP were 1 µM each. […] Peptide CR21 and CR23 still have good inhibitory potential of 10 μM albeit lower than peptide CR20.
The LpxA enzymatic reaction monitors the conversion of [α-^32P]UDP-GlcNAc to [α-^32P]UDP-3-O-(R-3-hydroxymyristoyl)- GlcNAc. The assay components consist of 40 mM HEPES buffer, pH 8, 1 mg/ml BSA, 1 μM R-3-hydroxymyristoyl-ACP, and 1 μM [α-^32P]UDP-GlcNAc (2 × 10^6 cpm/nmol). […] The final concentration of DMSO was adjusted to 10% to match the peptide solvent in all enzymatic assays.
The reactions were started by the addition of 1 nM of LpxA and incubated at 30 °C for a maximum of 10 min. Three or four time points were collected during this time. Termination of the reaction was accomplished by the addition of 1 μl portions onto a silica thin layer chromatography (TLC) plate. The TLC plates were air dried for 10 min before developing in chloroform/methanol/water/acetic acid (25:15:4:2, v/v). Plates were exposed to PhosphorImager screens overnight, and the data were evaluated with Molecular Dynamics PhosphorImager equipped with ImageQuant software. […] To determine the IC50 at 30 °C, the data were fit to the following equations,1 vi/vc=IC50/(I+IC50) or1a %activity=100/(1+I/IC50) vi represents the initial rate, at given concentrations of inhibitor, vc represents the initial velocity of the control reaction without inhibitor, and I represents the inhibitor concentration. The IC50 determination represents the concentration of inhibitor needed to inhibit 50% of the enzyme activity.

Experiment [2] deals with E. coli. The following applies: peptide expressed fused to GST in E. coli; cited from earlier work.
Experiment [3] has as its target T1, E. coli LpxA. The settings on record: previous enzymatic evidence; cited from earlier work.

“And” between values parts separate entries of the source, which are not always exact repeats. Identical values can stand only once. Where a SMILES comes first, the peptide text is derived from it. Where no end group is shown, it is not given here. Bounds are passed on as bounds.

T1 sequence (P0A722 whole entry): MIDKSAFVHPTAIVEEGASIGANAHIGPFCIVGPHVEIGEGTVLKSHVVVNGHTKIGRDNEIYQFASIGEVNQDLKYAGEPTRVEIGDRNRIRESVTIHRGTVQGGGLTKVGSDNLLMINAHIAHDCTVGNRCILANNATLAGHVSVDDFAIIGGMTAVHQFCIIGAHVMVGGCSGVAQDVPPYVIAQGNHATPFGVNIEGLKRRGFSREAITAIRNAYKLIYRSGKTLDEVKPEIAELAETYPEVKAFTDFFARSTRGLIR

In the case of SSGWMLDPIAGKWS [CR21], in experiment [1], the IC50 was found to be 12 ± 1.4 µM.
Consider SSGWMLDPIAGKW [CR22], for which, in experiment [1], inhibition was half-maximal at 9 ± 2.2 µM (IC50).
On the same count and under the same terms, in the case of WMLDPIAGKWSR [CR20] it was ~0.05 µM and 0.05 µM; in that of GWMLDPIA [CR24], greater than 100 µM; in that of GWMLDPIAGKWSR [CR19], 0.077 ± 0.003 µM.
Turning to GWMLDPIAGKW [CR23], in experiment [1], the IC50 came to 10 ± 0.3 µM.
Same read-out and setting: to `CSCC[C@H](NC(=O)[C@@H](N)Cc1c[nH]c2ccccc12)C(=O)N[C@@H](CC(C)C)C(=O)N[C@@H](CC(=O)O)C(=O)O` [CR26, WMLD] (H-WMLD-OH) belongs greater than 100 µM; to WMLDPI [CR25, WMLDPI], greater than 100 µM.
Regarding SSGWMLDPIAGKWSR [Peptide 920], in experiment [2], the Bacterial growth entry was “inhibited bacterial growth”. Further, in experiment [3], the Mode of inhibition result is “largely competitive with respect to ACP”.
